Assays:
Type in all cases: cell-based
K-562 = assay: SRB colorimetric cell growth inhibition assay, K-562; conditions: Homo sapiens, K562, K-562; for GI50: GI=growth inhibition, read-out: GI50 K-562; for CC50: cell killing (cytotoxic effect), read-out: LC50 K-562; for IC (TGI): total growth inhibition (cytostatic effect), read-out: TGI K-562
Summary of the method: (§1)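 After uninterrupted treatment, cultures are fixed and stained with sulforhodamine B, and absorbance reflects cell growth and viability. Each value represents the average of triplicate wells with SD.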

A-549 = assay: SRB colorimetric cell growth inhibition assay, A-549; conditions: Homo sapiens, A549, A-549; for GI50: GI=growth inhibition, read-out: GI50 A-549; for CC50: cell killing (cytotoxic effect), read-out: LC50 A-549; for IC (TGI): total growth inhibition (cytostatic effect), read-out: TGI A-549
Summary of the method: as §1

SK-MEL-28 = assay: SRB colorimetric cell growth inhibition assay, SK-MEL-28; conditions: Homo sapiens, SK-MEL-28, MEL-28; for GI50: GI=growth inhibition, read-out: GI50 MEL-28; for CC50: cell killing (cytotoxic effect), read-out: LC50 MEL-28; for IC (TGI): total growth inhibition (cytostatic effect), read-out: TGI MEL-28
Summary of the method: as §1

HT-29 = assay: SRB colorimetric cell growth inhibition assay, HT-29; conditions: Homo sapiens, HT-29, HT-29; for GI50: GI=growth inhibition, read-out: GI50 HT-29; for CC50: cell killing (cytotoxic effect), read-out: LC50 HT-29; for IC (TGI): total growth inhibition (cytostatic effect), read-out: TGI HT-29
Summary of the method: as §1

LoVo = assay: SRB colorimetric cell growth inhibition assay, LoVo; conditions: Homo sapiens, LoVo; for GI50: GI=growth inhibition, read-out: GI50 LOVO; for CC50: cell killing (cytotoxic effect), read-out: LC50 LOVO; for IC (TGI): total growth inhibition (cytostatic effect), read-out: TGI LOVO
Summary of the method: as §1

LoVo-Dox = assay: SRB colorimetric cell growth inhibition assay, LoVo-Dox (MDR); conditions: Homo sapiens, LOVO-DOX; for GI50: GI=growth inhibition, read-out: GI50 LOVO-DOX; for CC50: cell killing (cytotoxic effect), read-out: LC50 LOVO-DOX; for IC (TGI): total growth inhibition (cytostatic effect), read-out: TGI LOVO-DOX
Summary of the method: as §1

DU-145 = assay: SRB colorimetric cell growth inhibition assay, DU-145; conditions: Homo sapiens, DU-145, DU-145; for GI50: GI=growth inhibition, read-out: GI50 DU-145; for CC50: cell killing (cytotoxic effect), read-out: LC50 DU-145; for IC (TGI): total growth inhibition (cytostatic effect), read-out: TGI DU-145
Summary of the method: as §1

LNCaP = assay: SRB colorimetric cell growth inhibition assay, LNCaP; conditions: Homo sapiens, LNCaP, LN-caP; for GI50: GI=growth inhibition, read-out: GI50 LN-caP; for CC50: cell killing (cytotoxic effect), read-out: LC50 LN-caP; for IC (TGI): total growth inhibition (cytostatic effect), read-out: TGI LN-caP
Summary of the method: as §1

SK-BR-3 = assay: SRB colorimetric cell growth inhibition assay, SK-BR-3; conditions: Homo sapiens, SK-BR-3, SK-BR-3; for GI50: GI=growth inhibition, read-out: GI50 SK-BR-3; for CC50: cell killing (cytotoxic effect), read-out: LC50 SK-BR-3; for IC (TGI): total growth inhibition (cytostatic effect), read-out: TGI SK-BR-3
Summary of the method: as §1

IGROV = assay: SRB colorimetric cell growth inhibition assay, IGROV; conditions: Homo sapiens, IGROV; for GI50: GI=growth inhibition, read-out: GI50 IGROV; for CC50: cell killing (cytotoxic effect), read-out: LC50 IGROV; for IC (TGI): total growth inhibition (cytostatic effect), read-out: TGI IGROV
Summary of the method: as §1

IGROV-ET = assay: SRB colorimetric cell growth inhibition assay, IGROV-ET (ET-743 resistant); conditions: Homo sapiens, IGROV-ET; for GI50: GI=growth inhibition, read-out: GI50 IGROV-ET; for CC50: cell killing (cytotoxic effect), read-out: LC50 IGROV-ET; for IC (TGI): total growth inhibition (cytostatic effect), read-out: TGI IGROV-ET
Summary of the method: as §1

HeLa = assay: SRB colorimetric cell growth inhibition assay, HeLa; conditions: Homo sapiens, HeLa; for GI50: GI=growth inhibition, read-out: GI50 HELA; for CC50: cell killing (cytotoxic effect), read-out: LC50 HELA; for IC (TGI): total growth inhibition (cytostatic effect), read-out: TGI HELA
Summary of the method: as §1

HeLa-APL = assay: SRB colorimetric cell growth inhibition assay, HeLa-APL (aplidine resistant); conditions: Homo sapiens, HELA-APL; for GI50: GI=growth inhibition, read-out: GI50 HELA-APL; for CC50: cell killing (cytotoxic effect), read-out: LC50 HELA-APL; for IC (TGI): total growth inhibition (cytostatic effect), read-out: TGI HELA-APL
Summary of the method: as §1

PANC-1 = assay: SRB colorimetric cell growth inhibition assay, PANC-1; conditions: Homo sapiens, PANC-1, PANC-1; for GI50: GI=growth inhibition, read-out: GI50 PANC-1; for CC50: cell killing (cytotoxic effect), read-out: LC50 PANC-1; for IC (TGI): total growth inhibition (cytostatic effect), read-out: TGI PANC-1
Summary of the method: as §1

## COc1cc(-c2c3c4cc(OC)c(OC(=O)[C@@H]5CCCN5)cc4oc(=O)c3n3ccc4cc(OC(=O)[C@@H]5CCCN5)c(OC)cc4c23)ccc1OC(=O)[C@@H]1CCCN1 [Compound 180]
K-562
  GI50: 0.04 µM
  CC50: 11.1 µM
  IC (TGI): 1.53 µM
A-549
  GI50: 0.0201 µM
  CC50: 7.26 µM
  IC (TGI): 0.233 µM
SK-MEL-28
  GI50: 0.0134 µM
  CC50: 11.1 µM
  IC (TGI): 0.126 µM
HT-29
  GI50: 11.1 µM
  CC50: 11.1 µM
  IC (TGI): 11.1 µM
LoVo
  GI50: 0.535 µM
  CC50: 8.51 µM
  IC (TGI): 2.01 µM
LoVo-Dox
  GI50: 0.104 µM
  CC50: 11.1 µM
  IC (TGI): 0.498 µM
DU-145
  GI50: 0.0359 µM
  CC50: 11.1 µM
  IC (TGI): 0.0842 µM
LNCaP
  GI50: 0.053 µM
  CC50: 0.615 µM
  IC (TGI): 0.227 µM
SK-BR-3
  GI50: 0.0181 µM
  CC50: 1.19 µM
  IC (TGI): 0.0541 µM
IGROV
  GI50: 0.053 µM
  CC50: 11.1 µM
  IC (TGI): 0.319 µM
IGROV-ET
  GI50: 0.0691 µM
  CC50: 11.1 µM
  IC (TGI): 0.531 µM
HeLa
  GI50: 0.0806 µM
  CC50: 11.1 µM
  IC (TGI): 1.99 µM
HeLa-APL
  GI50: 0.13 µM
  CC50: 11.1 µM
  IC (TGI): 1.21 µM
PANC-1
  GI50: 0.13 µM
  CC50: 11.1 µM
  IC (TGI): 0.0111 µM

## COc1cc(-c2c3c4cc(OC)c(OC(=O)[C@@H](N)CC(C)C)cc4oc(=O)c3n3ccc4cc(OC(=O)[C@@H](N)CC(C)C)c(OC)cc4c23)ccc1OC(=O)[C@@H](N)CC(C)C [Compound 181]
K-562
  GI50: 0.0328 µM
  CC50: 7.14 µM
  IC (TGI): 0.444 µM
A-549
  GI50: 0.0198 µM
  CC50: 8.18 µM
  IC (TGI): 0.209 µM
SK-MEL-28
  GI50: 0.0168 µM
  CC50: 2.14 µM
  IC (TGI): 0.0956 µM
HT-29
  GI50: 3.06 µM
  CC50: 10.5 µM
  IC (TGI): 10.5 µM
LoVo
  GI50: 0.331 µM
  CC50: 10.5 µM
  IC (TGI): 1.1 µM
LoVo-Dox
  GI50: 0.0945 µM
  CC50: 10.5 µM
  IC (TGI): 0.47 µM
DU-145
  GI50: 0.0249 µM
  CC50: 10.5 µM
  IC (TGI): 0.0594 µM
LNCaP
  GI50: 0.0593 µM
  CC50: 0.678 µM
  IC (TGI): 0.237 µM
SK-BR-3
  GI50: 0.0206 µM
  CC50: 0.862 µM
  IC (TGI): 0.0592 µM
IGROV
  GI50: 0.038 µM
  CC50: 3.2 µM
  IC (TGI): 0.231 µM
IGROV-ET
  GI50: 0.05 µM
  CC50: 10.5 µM
  IC (TGI): 0.341 µM
HeLa
  GI50: 0.0478 µM
  CC50: 10.5 µM
  IC (TGI): 0.632 µM
HeLa-APL
  GI50: 0.0667 µM
  CC50: 8.14 µM
  IC (TGI): 0.477 µM
PANC-1
  GI50: 0.0864 µM
  CC50: 10.5 µM
  IC (TGI): 2.09 µM

## COc1cc(-c2c3c4cc(OC)c(O)cc4oc(=O)c3n3ccc4c(N)cccc4c23)ccc1O [Compound 182]
K-562
  GI50: 0.316 µM
  CC50: 21.3 µM
  IC (TGI): 4.85 µM
A-549
  GI50: 9.58 µM
  CC50: 21.3 µM
  IC (TGI): 21.3 µM
SK-MEL-28
  GI50: 1.08 µM
  CC50: 21.3 µM
  IC (TGI): 21.3 µM
HT-29
  GI50: 21.3 µM
  CC50: 21.3 µM
  IC (TGI): 21.3 µM
LoVo
  GI50: 21.3 µM
  CC50: 21.3 µM
  IC (TGI): 21.3 µM
LoVo-Dox
  GI50: 1.21 µM
  CC50: 21.3 µM
  IC (TGI): 21.3 µM
DU-145
  GI50: 1.08 µM
  CC50: 21.3 µM
  IC (TGI): 21.3 µM
LNCaP
  GI50: 1.75 µM
  CC50: 21.3 µM
  IC (TGI): 21.3 µM
SK-BR-3
  GI50: 0.365 µM
  CC50: 12 µM
  IC (TGI): 1.25 µM
IGROV
  GI50: 2.86 µM
  CC50: 21.3 µM
  IC (TGI): 21.3 µM
IGROV-ET
  GI50: 3.16 µM
  CC50: 21.3 µM
  IC (TGI): 21.3 µM
HeLa
  GI50: 8.52 µM
  CC50: 21.3 µM
  IC (TGI): 21.3 µM
HeLa-APL
  GI50: 4.46 µM
  CC50: 21.3 µM
  IC (TGI): 21.3 µM
PANC-1
  GI50: 4.85 µM
  CC50: 21.3 µM
  IC (TGI): 21.3 µM

## COc1cc2c(cc1O)CCn1c-2c(Br)c2c3cc(OC)c(O)cc3oc(=O)c21 [Compound 188]
K-562
  GI50: 0.908 µM
  CC50: 21.8 µM
  IC (TGI): 4.02 µM
A-549
  GI50: 10.8 µM
  CC50: 21.8 µM
  IC (TGI): 21.8 µM
SK-MEL-28
  GI50: 1.14 µM
  CC50: 21.8 µM
  IC (TGI): 21.8 µM
HT-29
  GI50: 21.8 µM
  CC50: 21.8 µM
  IC (TGI): 21.8 µM
LoVo
  GI50: 4.5 µM
  CC50: 21.8 µM
  IC (TGI): 21.8 µM
LoVo-Dox
  GI50: 1.3 µM
  CC50: 21.8 µM
  IC (TGI): 21.8 µM
DU-145
  GI50: 3.19 µM
  CC50: 21.8 µM
  IC (TGI): 21.8 µM
LNCaP
  GI50: 3.3 µM
  CC50: 21.8 µM
  IC (TGI): 21.8 µM
SK-BR-3
  GI50: 3.6 µM
  CC50: 21.8 µM
  IC (TGI): 11.5 µM
IGROV
  GI50: 5.37 µM
  CC50: 21.8 µM
  IC (TGI): 20.2 µM
IGROV-ET
  GI50: 2.51 µM
  CC50: 21.8 µM
  IC (TGI): 13.4 µM
HeLa
  GI50: 1.05 µM
  CC50: 21.8 µM
  IC (TGI): 3.69 µM
HeLa-APL
  GI50: 0.984 µM
  CC50: 15.8 µM
  IC (TGI): 31.6 µM
PANC-1
  GI50: 5.56 µM
  CC50: 21.8 µM
  IC (TGI): 21.8 µM

Source: patent publication US7396837B2, “Antitumoral analogs of lamellarins” (Pharma Mar, S.A.U., priority 2002, dated 2008)
